Data taken from PubChem BioAssay (NCI).
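Briefly, cells in 96-well plates were exposed to five compound concentrations for 48 h, and endpoints were estimated by linear interpolation. GI50 is the concentration that inhibits growth by half. Definition used: TGI = concentration required for complete inhibition of growth.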

Key:
Assay in all cases: inhibition of tumour cell growth, NCI panel, 48 h
OVCAR-3 ovarian = system: OVCAR-3 ovarian
UO-31 renal = system: UO-31 renal
COLO 205 colon = system: COLO 205 colon
SNB-19 CNS = system: SNB-19 CNS
SNB-75 CNS = system: SNB-75 CNS
T-47D breast = system: T-47D breast
MCF7 breast = system: MCF7 breast
SF-539 CNS = system: SF-539 CNS
K-562 leukemia = system: K-562 leukemia
HL-60(TB) leukemia = system: HL-60(TB) leukemia
NCI-H460 lung = system: NCI-H460 lung
SK-MEL-2 melanoma = system: SK-MEL-2 melanoma
NCI/ADR-RES ovarian = system: NCI/ADR-RES ovarian
KM12 colon = system: KM12 colon
UACC-257 melanoma = system: UACC-257 melanoma
SW-620 colon = system: SW-620 colon
SK-MEL-5 melanoma = system: SK-MEL-5 melanoma
SK-OV-3 ovarian = system: SK-OV-3 ovarian
HCT-15 colon = system: HCT-15 colon
BT-549 breast = system: BT-549 breast
OVCAR-5 ovarian = system: OVCAR-5 ovarian
OVCAR-4 ovarian = system: OVCAR-4 ovarian
HCC-2998 colon = system: HCC-2998 colon
SR leukemia = system: SR leukemia
MOLT-4 leukemia = system: MOLT-4 leukemia
DU-145 prostate = system: DU-145 prostate
A498 renal = system: A498 renal
HOP-92 NSCLC = system: HOP-92 NSCLC
HCT-116 colon = system: HCT-116 colon
IGROV1 ovarian = system: IGROV1 ovarian
HT29 colon = system: HT29 colon
SF-295 CNS = system: SF-295 CNS
UACC-62 melanoma = system: UACC-62 melanoma
ACHN renal = system: ACHN renal
RXF 393 renal = system: RXF 393 renal
HS 578T breast = system: HS 578T breast
HOP-62 NSCLC = system: HOP-62 NSCLC
CAKI-1 renal = system: CAKI-1 renal
786-0 renal = system: 786-0 renal
NCI-H226 lung = system: NCI-H226 lung
EKVX NSCLC = system: EKVX NSCLC
U251 CNS = system: U251 CNS
CCRF-CEM leukemia = system: CCRF-CEM leukemia
RPMI-8226 leukemia = system: RPMI-8226 leukemia
SF-268 CNS = system: SF-268 CNS

Question: Which GI50 (OVCAR-3 ovarian) does the source give for `Fc1ccc(-c2cc3nc(C(Cl)Cl)nc(-c4ccc(F)cc4)n3n2)cc1` here?
Answer: 1.54 µM

Question: What about the TGI (OVCAR-3 ovarian) of the same compound?
Answer: 3.51 µM

Question: And the GI50 (UO-31 renal)?
Answer: 3.1 µM

Question: And the TGI (UO-31 renal)?
Answer: > 100 µM

Question: What about the GI50 (COLO 205 colon) of the same compound?
Answer: 1.15 µM

Question: And the TGI (COLO 205 colon)?
Answer: 2.52 µM

Question: And the GI50 (SNB-19 CNS)?
Answer: 1.65 µM

Question: And the TGI (SNB-19 CNS)?
Answer: 6.88 µM

Question: And the GI50 (SNB-75 CNS)?
Answer: 64.9 µM

Question: What about the TGI (SNB-75 CNS) of the same compound?
Answer: > 100 µM

Question: What about the GI50 (T-47D breast) of the same compound?
Answer: 2.62 µM

Question: What about the TGI (T-47D breast) of the same compound?
Answer: > 100 µM

Question: What about the GI50 (MCF7 breast) of the same compound?
Answer: 1.21 µM

Question: And the TGI (MCF7 breast)?
Answer: > 100 µM

Question: And the GI50 (SF-539 CNS)?
Answer: 3.56 µM

Question: And the TGI (SF-539 CNS)?
Answer: > 100 µM

Question: What about the GI50 (K-562 leukemia) of the same compound?
Answer: 2.3 µM

Question: What about the TGI (K-562 leukemia) of the same compound?
Answer: > 100 µM

Question: What about the GI50 (HL-60(TB) leukemia) of the same compound?
Answer: 0.69 µM

Question: What about the GI50 (NCI-H460 lung) of the same compound?
Answer: 0.591 µM

Question: What about the TGI (NCI-H460 lung) of the same compound?
Answer: 3.17 µM

Question: What about the GI50 (SK-MEL-2 melanoma) of the same compound?
Answer: > 100 µM

Question: What about the TGI (SK-MEL-2 melanoma) of the same compound?
Answer: > 100 µM

Question: What about the GI50 (NCI/ADR-RES ovarian) of the same compound?
Answer: 1.26 µM

Question: And the TGI (NCI/ADR-RES ovarian)?
Answer: 5.84 µM

Question: And the GI50 (KM12 colon)?
Answer: 1.73 µM

Question: And the TGI (KM12 colon)?
Answer: 5.22 µM

Question: And the GI50 (UACC-257 melanoma)?
Answer: 2.26 µM

Question: And the TGI (UACC-257 melanoma)?
Answer: 4.91 µM

Question: What about the GI50 (SW-620 colon) of the same compound?
Answer: 1.11 µM

Question: And the TGI (SW-620 colon)?
Answer: 6.85 µM

Question: What about the GI50 (SK-MEL-5 melanoma) of the same compound?
Answer: > 100 µM

Question: And the TGI (SK-MEL-5 melanoma)?
Answer: > 100 µM

Question: What about the GI50 (SK-OV-3 ovarian) of the same compound?
Answer: 2.36 µM

Question: What about the TGI (SK-OV-3 ovarian) of the same compound?
Answer: 6.34 µM

Question: What about the GI50 (HCT-15 colon) of the same compound?
Answer: 1.11 µM

Question: And the TGI (HCT-15 colon)?
Answer: 6.16 µM

Question: What about the GI50 (BT-549 breast) of the same compound?
Answer: 2.43 µM

Question: What about the TGI (BT-549 breast) of the same compound?
Answer: 42.8 µM

Question: And the GI50 (OVCAR-5 ovarian)?
Answer: 2.27 µM

Question: What about the TGI (OVCAR-5 ovarian) of the same compound?
Answer: 7.29 µM

Question: What about the GI50 (OVCAR-4 ovarian) of the same compound?
Answer: 1.82 µM

Question: What about the TGI (OVCAR-4 ovarian) of the same compound?
Answer: 5.75 µM

Question: And the GI50 (HCC-2998 colon)?
Answer: 1.01 µM

Question: And the TGI (HCC-2998 colon)?
Answer: 2.35 µM

Question: And the GI50 (SR leukemia)?
Answer: 1.4 µM

Question: And the TGI (SR leukemia)?
Answer: > 100 µM

Question: What about the GI50 (MOLT-4 leukemia) of the same compound?
Answer: 1.8 µM

Question: And the TGI (MOLT-4 leukemia)?
Answer: 9.61 µM

Question: What about the GI50 (DU-145 prostate) of the same compound?
Answer: 0.443 µM

Question: And the TGI (DU-145 prostate)?
Answer: 2.97 µM

Question: And the GI50 (A498 renal)?
Answer: 1.65 µM

Question: What about the TGI (A498 renal) of the same compound?
Answer: 3.44 µM

Question: And the GI50 (HOP-92 NSCLC)?
Answer: 2.6 µM

Question: And the TGI (HOP-92 NSCLC)?
Answer: 9.69 µM

Question: What about the GI50 (HCT-116 colon) of the same compound?
Answer: 0.637 µM

Question: What about the TGI (HCT-116 colon) of the same compound?
Answer: 6.3 µM

Question: And the GI50 (IGROV1 ovarian)?
Answer: 3.99 µM

Question: And the TGI (IGROV1 ovarian)?
Answer: > 100 µM

Question: What about the GI50 (HT29 colon) of the same compound?
Answer: 0.746 µM

Question: And the TGI (HT29 colon)?
Answer: 3.85 µM

Question: And the GI50 (SF-295 CNS)?
Answer: 2.17 µM

Question: And the TGI (SF-295 CNS)?
Answer: 5.78 µM

Question: And the GI50 (UACC-62 melanoma)?
Answer: 3.21 µM

Question: And the TGI (UACC-62 melanoma)?
Answer: > 100 µM

Question: What about the GI50 (ACHN renal) of the same compound?
Answer: 0.676 µM

Question: And the TGI (ACHN renal)?
Answer: 4.16 µM

Question: And the GI50 (RXF 393 renal)?
Answer: 1.1 µM

Question: And the TGI (RXF 393 renal)?
Answer: 2.43 µM

Question: What about the GI50 (HS 578T breast) of the same compound?
Answer: 4.14 µM

Question: And the TGI (HS 578T breast)?
Answer: > 100 µM

Question: And the GI50 (HOP-62 NSCLC)?
Answer: 1.5 µM

Question: What about the TGI (HOP-62 NSCLC) of the same compound?
Answer: 4.26 µM

Question: And the GI50 (CAKI-1 renal)?
Answer: 1.89 µM

Question: What about the TGI (CAKI-1 renal) of the same compound?
Answer: 6.74 µM

Question: And the GI50 (786-0 renal)?
Answer: 16.9 µM

Question: And the TGI (786-0 renal)?
Answer: > 100 µM

Question: What about the GI50 (NCI-H226 lung) of the same compound?
Answer: 6.14 µM

Question: And the TGI (NCI-H226 lung)?
Answer: > 100 µM

Question: And the GI50 (EKVX NSCLC)?
Answer: 1.68 µM

Question: What about the TGI (EKVX NSCLC) of the same compound?
Answer: 4.37 µM

Question: What about the GI50 (U251 CNS) of the same compound?
Answer: 1.22 µM

Question: And the TGI (U251 CNS)?
Answer: 5.27 µM

Question: What about the GI50 (CCRF-CEM leukemia) of the same compound?
Answer: 4.21 µM

Question: What about the TGI (CCRF-CEM leukemia) of the same compound?
Answer: > 100 µM

Question: And the GI50 (RPMI-8226 leukemia)?
Answer: 2.66 µM

Question: And the TGI (RPMI-8226 leukemia)?
Answer: > 100 µM

Question: What about the GI50 (SF-268 CNS) of the same compound?
Answer: 2.48 µM

Question: What about the TGI (SF-268 CNS) of the same compound?
Answer: > 100 µM
